Structures are written as SMILES.

The nature of data set [1]: Solubility remark made during LCMS characterisation. It counts as physicochemical. To be noted: solvent for LCMS analysis.
Another data set addresses T1, KMO mouse enzyme (Mus musculus, UniProt Q91WN4).
T1 construct: KMO enzyme prepared at Evotec from mouse liver (4-6 weeks old) via mitochondria isolation; from tissue; host or cells: mouse liver (4-6 weeks old), mitochondria isolation at Evotec
In words: Mouse KMO enzyme assay: L-kynurenine hydroxylation to 3OH-KYN by LC/MS. In kind it is biochemical. Conditions: compound at 10 μM; KMO from mouse liver mitochondria; read-out: INH.Mouse @ 10 μM. How it is done: Product is quantified by multiple reaction monitoring (MRM method).
• Compound: Stock concentrations: 10 mM in 100% DMSO • Enzyme: KMO enzyme prepared at Evotec from mouse liver (4-6 weeks old) via mitochondria isolation as described in the literature • Substrate: L-Kynurenine (Sigma: Cat #K3750, stock concentration:
10 mM in 100 mM potassium phosphate buffer, pH 7.4)

T1 sequence (Q91WN4 whole entry): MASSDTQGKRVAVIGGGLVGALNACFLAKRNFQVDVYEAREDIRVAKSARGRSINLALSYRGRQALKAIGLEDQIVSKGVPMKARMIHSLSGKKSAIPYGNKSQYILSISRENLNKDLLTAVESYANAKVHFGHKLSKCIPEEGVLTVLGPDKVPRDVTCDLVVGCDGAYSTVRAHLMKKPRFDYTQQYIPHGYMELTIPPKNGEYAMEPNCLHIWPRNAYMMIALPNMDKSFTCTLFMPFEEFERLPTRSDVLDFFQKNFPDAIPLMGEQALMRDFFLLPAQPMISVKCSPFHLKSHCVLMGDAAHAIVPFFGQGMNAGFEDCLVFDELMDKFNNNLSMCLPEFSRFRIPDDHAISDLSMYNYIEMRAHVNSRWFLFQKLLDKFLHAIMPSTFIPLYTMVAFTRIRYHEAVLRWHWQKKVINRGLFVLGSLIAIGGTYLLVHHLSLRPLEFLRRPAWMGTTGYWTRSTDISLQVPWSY

For `Cn1[nH]cc(-c2cc(-c3ccc(Cl)c(Cl)c3)ncn2)c1=O`, the “solubility (remark in words)” value in data set [1] is “Compound is insufficiently soluble in any acceptable solvent in order to obtain a meaningful LCMS 1H NMR (500 MHz, DMSO-d6) d ppm 8.88 (1 H, s), 8.44 (1 H, br. s.), 8.26 (1 H, br. s.), 8.19 (1 H, d), 8.06 (1 H, br. s.), 7.85 (1 H, d), 3.45 (3 H, s)”.

In the case of `O=c1[nH]c(-c2cc(-c3ccc(OC4CC4)c(Cl)c3)ncn2)no1` [3-[6-(3-chloro-4-cyclopropoxyphenyl)pyrimidin-4-yl]-4,5-dihydro-1,2,4-oxadiazol-5-one], on KMO mouse enzyme, the inhibition at 10 µM amounted to 93%. On the same count and under the same terms, the value for `O=C(O)C1CN(c2cc(-c3ccc(Cl)c(Cl)c3)ncn2)CCN1` (stereo not shown) [4-(6-(3,4-dichlorophenyl)pyrimidin-4-yl)piperazine-2-carboxylic acid] was 0%; that for `Clc1cc(-c2cc(-c3nn[nH]n3)ncn2)ccc1OC1CC1` [4-(3-chloro-4-cyclopropoxyphenyl)-6-(1H-1,2,3,4-tetrazol-5-yl)pyrimidine] was 100%; that for `O=C(O)[C@H]1CCCN1c1cc(-c2ccc(Cl)c(Cl)c2)ncn1` [(R)-1-(6-(3,4-dichlorophenyl)pyrimidin-4-yl)pyrrolidine-2-carboxylic acid] was 7%. Turning to `O=C(O)C1CCN(c2cc(-c3ccc(Cl)c(Cl)c3)ncn2)C1` (stereo not shown) [1-(6-(3,4-dichlorophenyl)pyrimidin-4-yl)pyrrolidine-3-carboxylic acid], the inhibition at 10 µM at KMO mouse enzyme stood at 14%. Still for that read-out and setting: the value for `O=C(O)C1CNCCN1c1cc(-c2ccc(Cl)c(Cl)c2)ncn1` (stereo not shown) [1-(6-(3,4-dichlorophenyl)pyrimidin-4-yl)piperazine-2-carboxylic acid] was 30%; that for `O=C(O)C1CCC(c2cc(-c3ccc(OC4CC4)c(Cl)c3)ncn2)N1` (stereo not shown) [5-(6-(3-chloro-4-cyclopropoxyphenyl)pyrimidin-4-yl)pyrrolidine-2-carboxylic acid] was 84%; that for `CC(C)Oc1ccc(-c2cc(C3CNC(C(=O)O)C3)ncn2)cc1Cl` (stereo not shown) [4-(6-(3-chloro-4-isopropoxyphenyl)pyrimidin-4-yl)pyrrolidine-2-carboxylic acid] was 71%. Consider `O=C(O)[C@@H]1CCCN1c1cc(-c2ccc(Cl)c(Cl)c2)ncn1` [(S)-1-(6-(3,4-dichlorophenyl)pyrimidin-4-yl)pyrrolidine-2-carboxylic acid], for which the inhibition at 10 µM on KMO mouse enzyme worked out at 11%. Still for that read-out and setting: next, `Clc1cc(-c2cc(-c3ncco3)ncn2)ccc1OC1CC1` [2-(6-(3-chloro-4-cyclopropoxyphenyl)pyrimidin-4-yl)oxazole]: 71%. On to `FC(F)(F)c1c[nH]c(-c2cc(-c3ccc(Cl)c(Cl)c3)ncn2)n1` [4-(3,4-dichlorophenyl)-6-(4-(trifluoromethyl)-1H-imidazol-2-yl)pyrimidine], for which the inhibition at 10 µM on KMO mouse enzyme is 0%. Consider `O=c1[nH]nc(-c2cc(-c3ccc(Cl)c(Cl)c3)ncn2)[nH]1`, for which the “solubility (remark in words)” value in data set [1] is recorded as “very unsoluble compound- LCMS unobtainable ^1H NMR (250 MHz, DMSO- d6) ppm 9.27-9.32 (1 H, m), 8.39-8.47 (2 H, m), 8.17- 8.25 (1 H, m), 7.76-7.85 (1 H, m)”.
